# Where two headings read alike, the source gives them in different places.
# How the values were obtained:
# [1] = Metabolic rate in human liver microsome; assay type: in vitro ADME; conditions: pooled human liver microsome, 1 mg/mL protein, NADPH production system, pH 7.4, 37° C., HPLC
# Description: Metabolic rates of the compounds of the present invention mentioned in Examples and maxacalcitol in human liver microsome were compared and investigated.
# As to the pooled human liver microsome (HHM-0323), those manufactured by Tissue Transformation Technologies were used. A 0.25M potassium phosphate buffer (pH 7.4) (200 μL), 5 μL of a 250 μM solution of each compound to be tested in DMSO, 50 μL of an NADPH production system (where 20 mg of (β-NADP^+, 70 mg of glucose-6-phosphate, 40 units of glucose-6-phosphate dehydrogenase and 20 mg of magnesium chloride were dissolved in 1 mL of distilled water) and 220 μL of distilled water were added to a microtube and the mixture was subjected to a preincubation for 5 minutes at 37° C. Reaction was started by addition of 25 μL of human liver microsome (final concentration of protein: 1 mg/mL). Incubation was performed for 2, 10, 30 or 60 minutes and the reaction was stopped by addition of 500 μL of acetonitrile. After centrifugation at 13,000 rpm for 5 minutes, each test compound in the supernatant (25 μL) was measured by an HPLC under the following conditions.
# Inertsil ODS-3 (4.6×150 mm; GL Science) was used as a column. With regard to mobile phase, a solution A (acetonitrile/0.1% aqueous solution of ammonium acetate=10/90) and a solution B (acetonitrile/0.1% aqueous solution of ammonium acetate=90/10) were used under the linear gradient conditions mentioned in Table 4. Column temperature, flow rate and wavelength for detection were set at 40° C., 1.0 mL/min. and UV 270 nm, respectively.
# From the result of measurement by the above-mentioned HPLC, metabolic rates of the test compounds were calculated.
# [2] = Action to raise the urinary excretion of calcium (1), repeated percutaneous administration; assay type: in vivo, rat; conditions: male SD rats, percutaneous 0.33, 3.3 and 33 μg/kg/day once daily for three days, urine collected every 24 hours, compared with control
# Description: Open triangles show a control; open squares show the case where 0.33 μg/kg of the compound of Example 1 was administered; open rhombuses show the case where 3.3 μg/kg of the compound of Example 1 was administered; open circles show the case where 33 μg/kg of the compound of Example 1 was administered; black squares show the case where 0.33 μg/kg of maxacalcitol was administered; black rhombuses show the case where 3.3 μg/kg of maxacalcitol was administered; and black circles show the case where 33 μg/kg of maxacalcitol was administered.
# A solution of the compound of the present invention mentioned in Example 1 or maxacalcitol in ethanol containing 0.3% of DMSO was repeatedly subjected to a percutaneous administration (0.33, 3.3 and 33 μg/200 μl/kg/day) for three days once daily onto the back of male rats (7 weeks of age) of the SD strain. An ethanol solution containing 0.3% of DMSO was administered to a control group. Calcium concentration in urine collected every 24 hours after administration on each day was measured and multiplied by the amount of urine to calculate the urinary excretion of calcium.
# [3] = tested on: human acute myelogenous leukemia cell line HL-60; assay: Ability to induce differentiation of HL-60 cells (oxygen radical production after phorbol ester stimulation, WST-1); assay type: cell-based; conditions: 72 hours incubation, then WST-1 and phorbol 12,13-didecanoate for 4 hours, absorbance at 450, read-out: EC50 (50%-maximal effect concentration), induction of HL-60 differentiation
# From the text: It has been known that human acute myelogenous leukemia cell line HL-60 is differentiated into a neutrophil-like cell by active form of vitamin D. Thus, the cells after the differentiation begin to express a surface marker such as CD11 and CD32 and, at the same time, they produce oxygen radical by stimulation with a phorbol ester. In this test, the above-mentioned property was utilized to assess an ability to induce the differentiation of HL-60 cell of the compounds of the present invention mentioned in the Examples and maxacalcitol using as an indicator the amount of oxygen radical produced by stimulation with a phorbol ester whereby a vitamin D3 activity was compared and investigated. When commercially available reagents and kits were used, they were used according to the indications attached thereto.
# (Procedure) HL-60 cells (supplied from ATCC) were seeded on a 96-well plate at 5×10^3 cells/100 μL/well and a test compound in two-fold dilution series from 10^−7 M was added to the second to the twelfth rows (maximum concentration: the second row). The first row was used for blank. Maxacalcitol was added to lines A and B and the compound of the present invention was added to lines C and D. After incubation for 72 hours under a moisturized condition in the presence of 5% CO2 at 37° C. using a CO2 incubator, 101 μL of PBS containing 50 mM WST-1 (manufactured by Takara Bio) and 10 μM phorbol 12,13-didecanoate (manufactured by Sigma) were added to each well followed by incubating for 4 hours more. Absorbance (reference wavelength: 655 nM) at 450 nM of a WST-1 formazan dye generated by conversion from WST-1 by oxygen radical produced from the differentiated HL-60 cells was measured by a Benchmark microplate reader (manufactured by BioRad). An absorbance meter control software MPM 3 (manufactured by BioRad) was used and, from a concentration-absorbance curve, the 50%-maximal effect concentration (hereinafter, referred to as “EC50”) of each was determined by a logistic curve regression.
# [4] = Action to raise calcium concentration in serum, repeated percutaneous administration; assay type: in vivo, rat; conditions: male SD rats, percutaneous 33 μg/200 μL/kg/day once daily for seven days, blood 24 hours after final administration
# Description: A solution of the compound of the present invention mentioned in Example 1 or maxacalcitol in ethanol containing 0.3% of DMSO was repeatedly subjected to a percutaneous administration (33 μg/200 μL/kg/day) for seven days once daily onto the back of male rats (7 weeks of age) of the SD strain. An ethanol solution containing 0.3% of DMSO was administered to a control group. At 24 hours after the final administration, blood was collected and calcium concentration in serum was measured.
# [5] = Action to raise the urinary excretion of calcium (2), intravenous administration; assay type: in vivo, rat; conditions: male SD rats, intravenous 22.4 nmol/kg; for Urinary excretion of calcium: urine collected during 24 hours after administration; for Ratio of urinary excretion of calcium (to Control): urine collected during 24 hours, relative to control group
# Description: The compound of the present invention mentioned in Examples 3 or 8, or maxacalcitol (22.4 nmol/kg) was subjected to an intravenous administration to male rats (7 weeks of age) of the SD strain. A physiological saline containing 0.1% of Triton X 100 was administered to a control group. Calcium concentration in urine collected during 24 hours after the administration was measured and urinary excretion of calcium ([calcium concentration in urine]×[amount of urine]) and ratio of urinary excretion of calcium based on the control group ([calcium amount in urine upon administration of the compound to be tested]/[calcium amount in urine in the control group]) were calculated.
Compound,Metabolic Rate [1],EC50 [3],also measured
"C=C1C(=CC=C2CCCC3(C)C2CCC3C(C)OC(=O)CCC2(O)CCCC2)CC(O)CC1O [Compound of Example 20, (1S,3R,20S)-20-[3-(1-Hydroxycyclopentyl)propanoyloxy]-9,10-secopregna-5Z,7E,10(19)-trien-1,3-diol]",39 pmol/min/mg,1.7 nM,
"C=C1C(=CC=C2CCCC3(C)C2CCC3C(C)OC(=O)CC(=O)C(C)(C)O)CC(O)CC1O [Compound of Example 27, (1S,3R,20S)-20-(4-Hydroxy-4-methyl-3-oxo-pentanoyloxy)-9,10-secopregna-5Z,7E,10(19)-trien-1,3-diol]",,3 nM,
"C=C1/C(=C\C=C2/CCC[C@]3(C)[C@@H]([C@H](C)OCCC(C)(C)O)CC[C@@H]23)C[C@@H](O)C[C@@H]1O [Maxacalcitol, (1S,3R,20S)-20-(3-hydroxy-3-methylbutyl-oxy)-9,10-secopregna-5Z,7E,10(19)-trien-1,3-diol, reference compound]",10 pmol/min/mg,,Urinary excretion of calcium [5]: 1.5 mg; Ratio of urinary excretion of calcium (to Control) [5]: 211%; Urinary excretion of calcium (FIG. 1) [2]: increased in a dose-dependent manner; EC50 ([3]; Homo sapiens): 5.4 nM; Calcium Concentration in Serum [4]: 15.0 mg/dL
"C=C1C(=CC=C2CCCC3(C)C2CCC3C(C)OC(=O)CCCC(C)(C)O)CC(O)CC1O [Compound of Example 3, (1S,3R,20S)-20-(5-Hydroxy-5-methylhexanoyloxy)-9,10-secopregna-5Z,7E,10(19)-trien-1,3-diol]",22 pmol/min/mg,2.6 nM,Urinary excretion of calcium [5]: 0.66 mg; Ratio of urinary excretion of calcium (to Control) [5]: 93%
"C=C1C(=CC=C2CCCC3(C)C2CCC3C(C)OC(=O)CC(C)(O)C(F)(F)F)CC(O)CC1O [Compound of Example 4, (1S,3R,20S)-20-(4,4,4-Trifluoro-3-hydroxy-3-methylbutanoyloxy)-9,10-secopregna-5Z,7E,10(19)-trien-1,3-diol]",,0.21 nM,
"C=C1C(=CC=C2CCCC3(C)C2CCC3C(C)OC(=O)C=CC(O)(CC)CC)CC(O)CC1O [Compound of Example 10, (1S,3R,20S)-20-[(2E)-4-Ethyl-4-hydroxyhex-2-enoyloxy]-9,10-secopregna-5Z,7E,10(19)-trien-1,3-diol]",58 pmol/min/mg,1.2 nM,
"(1S,3R,20S)-20-(5-Hydroxy-5-methylheptanoyloxy)-9,10-secopregna-5Z,7E,10(19)-trien-1,3-diol [Compound of Example 11]",23 pmol/min/mg,4.3 nM,
"C=C1C(=CC=C2CCCC3(C)C2CCC3C(C)OC(=O)CC(O)(C(F)(F)F)C(F)(F)F)CC(O)CC1O [Compound of Example 7, (1S,3R,20S)-20-[4,4,4-Trifluoro-3-hydroxy-3-(trifluoromethyl)butanoyloxy]-9,10-secopregna-5Z,7E,10(19)-trien-1,3-diol]",,0.44 nM,

# Further lines, with some results ahead:
Metabolic Rate [1],EC50 [3],Compound,also measured
78 pmol/min/mg,2 nM,"C=C1/C(=C\C=C2/CCC[C@]3(C)[C@@H]([C@H](C)OC(=O)CCC(C)(C)O)CC[C@@H]23)C[C@@H](O)C[C@@H]1O [Compound of Example 1, (1S,3R,20S)-20-(4-Hydroxy-4-methyl-pentanoyloxy)-9,10-secopregna-5Z,7E,10(19)-trien-1,3-diol]",Urinary excretion of calcium (FIG. 1) [2]: no significant increase in urinary excretion of calcium; Calcium Concentration in Serum [4]: 11.8 mg/dL
38 pmol/min/mg,3.1 nM,"C=C1/C(=C\C=C2/CCC[C@]3(C)[C@@H]([C@H](C)OC(=O)/C=C/C(C)(C)O)CC[C@@H]23)C[C@@H](O)C[C@@H]1O [Compound of Example 8, (1S,3R,20S)-20-[(2E)-4-Hydroxy-4-methylpent-2-enoyloxy]-9,10-secopregna-5Z,7E,10(19)-trien-1,3-diol]",Urinary excretion of calcium [5]: 0.89 mg; Ratio of urinary excretion of calcium (to Control) [5]: 125%
,1.1 nM,"C=C1C(=CC=C2CCCC3(C)C2CCC3C(C)OC(=O)CC(O)C(C)C)CC(O)CC1O [Compound of Example 5, (1S,3R,20S)-20-(3-Hydroxy-4-methylpentanoyloxy)-9,10-secopregna-5Z,7E,10(19)-trien-1,3-diol]",
,4.2 nM,"C=C1C(=CC=C2CCCC3(C)C2CCC3C(C)OC(=O)CC(CC)C(C)O)CC(O)CC1O [Compound of Example 12, (1S,3R,20S)-20-(3-Ethyl-4-hydroxypentanoyloxy)-9,10-secopregna-5Z,7E,10(19)-trien-1,3-diol]",
,2.5 nM,"C=C1C(=CC=C2CCCC3(C)C2CCC3C(C)OC(=O)CC(=O)C(O)(CC)CC)CC(O)CC1O [Compound of Example 28, (1S,3R,20S)-20-(4-Ethyl-4-hydroxy-3-oxo-hexanoyloxy)-9,10-secopregna-5Z,7E,10(19)-trien-1,3-diol]",
,4 nM,"C=C1C(=CC=C2CCCC3(C)C2CCC3C(C)OC(=O)CN(C)CC(C)(C)O)CC(O)CC1O [Compound of Example 19, (1S,3R,20S)-20-[N-(2-Hydroxy-2-methylpropyl)-N-methyl-2-aminoacetyloxy]-9,10-secopregna-5Z,7E,10(19)-trien-1,3-diol]",
38 pmol/min/mg,2.3 nM,"C=C1C(=CC=C2CCCC3(C)C2CCC3C(C)OC(=O)CCC(O)(CC)CC)CC(O)CC1O [Compound of Example 13, (1S,3R,20S)-20-(4-Ethyl-4-hydroxyhexanoyloxy)-9,10-secopregna-5Z,7E,10(19)-trien-1,3-diol]",
